Measured values published in patent EP4635500A1, “THERAPEUTIC AGENT FOR BACTERIAL INFECTION” (Sumitomo Pharma Co., Ltd., priority 2022, dated 2024).
In brackets after ≈: the same amount, converted by molar mass. Where two headings read alike, the source gives them in different places.

Tested on: Enterobacterales
Assay: MIC, broth microdilution, CDC/FDA Antibiotic Resistance Isolate Bank (Example 7, Tables 8, 11, 12)
Assay type: cell-based
Settings: for MIC: read-out: MIC

O=C(O)c1cn(C2CC2)c2cc(N3CCNCC3)c(F)cc2c1=O [Ciprofloxacin, ciprofloxacin]
MIC80 (154 strains of Enterobacterales, read-out: MIC80): > 64 mg/L
MIC90 (154 strains of Enterobacterales, read-out: MIC90): > 64 mg/L
MIC (Citrobacter freundii, KUB No. 5654, AR Bank # 157): > 64 mg/L
MIC (Escherichia coli, Escherichia coli KUB No. 5783, AR Bank #437): > 64 mg/L
MIC (Escherichia coli, Escherichia coli KUB No. 5794, AR Bank #450): 0.06 mg/L (≈ 0.181 µM)
MIC (Escherichia coli, Escherichia coli KUB No. 5796, AR Bank #452): > 64 mg/L
MIC (Escherichia coli, KUB No. 5552, AR Bank# 55): > 64 mg/L
MIC (Escherichia coli, KUB No. 5558, AR Bank # 61): ≤ 0.03 mg/L
MIC (Escherichia coli, KUB No. 5564, AR Bank # 67): > 64 mg/L
MIC (Escherichia coli, KUB No. 5566, AR Bank # 69): 0.06 mg/L (≈ 0.181 µM)
MIC (Escherichia coli, KUB No. 5574, AR Bank # 77): ≤ 0.03 mg/L
MIC (Escherichia coli, KUB No. 5582, AR Bank # 85): > 64 mg/L
MIC (Escherichia coli, KUB No. 5586, AR Bank # 89): ≤ 0.03 mg/L
MIC (Escherichia coli, KUB No. 5616, AR Bank # 119): > 64 mg/L
MIC (Escherichia coli, KUB No. 5634, AR Bank # 137): > 64 mg/L
MIC (Escherichia coli, KUB No. 5764, AR Bank # 368): ≤ 0.03 mg/L
MIC (Escherichia coli, KUB No. 5765, AR Bank # 369): 0.06 mg/L (≈ 0.181 µM)
MIC (Escherichia coli, KUB No. 5766, AR Bank # 370): > 64 mg/L
MIC (Escherichia coli, KUB No. 5768, AR Bank # 372): > 64 mg/L
MIC (Escherichia coli, KUB No. 5770, AR Bank # 374): > 64 mg/L
MIC (Escherichia, KUB No. 57, AR Bank # 436 (row cut off)): > 64 mg/L
MIC (Klebsiella aerogenes, Enterobacter aerogenes, KUB No. 5559, AR Bank # 62): 2 mg/L (≈ 6.04 µM)
MIC (Klebsiella aerogenes, Enterobacter aerogenes, KUB No. 5571, AR Bank # 74): 0.06 mg/L (≈ 0.181 µM)
MIC (Klebsiella aerogenes, Enterobacter aerogenes, KUB No. 5658, AR Bank # 161): 0.06 mg/L (≈ 0.181 µM)
MIC (Klebsiella aerogenes, Enterobacter aerogenes, KUB No. 5777, AR Bank # 431): 1 mg/L (≈ 3.02 µM)
MIC (Klebsiella oxytoca, KUB No. 5644, AR Bank # 147): ≤ 0.03 mg/L
MIC (Klebsiella oxytoca, KUB No. 5771, AR Bank # 375): ≤ 0.03 mg/L
MIC (Klebsiella ozaenae, KUB No. 5548, AR Bank# 51): > 64 mg/L
MIC (Klebsiella pnemnonine, KUB No. 5758, AR Bank # 362): > 64 mg/L
MIC (Klebsiella pneumoniae, KUB No. 55, AR Bank# 47): > 64 mg/L
MIC (Klebsiella pneumoniae, KUB No. 5531, AR Bank# 34): 0.5 mg/L (≈ 1.51 µM)
MIC (Klebsiella pneumoniae, KUB No. 5537, AR Bank# 40): > 64 mg/L
MIC (Klebsiella pneumoniae, KUB No. 5540, AR Bank# 43): 4 mg/L (≈ 12.1 µM)
MIC (Klebsiella pneumoniae, KUB No. 5541, AR Bank# 44): > 64 mg/L
MIC (Klebsiella pneumoniae, KUB No. 5543, AR Bank# 46): > 64 mg/L
MIC (Klebsiella pneumoniae, KUB No. 5546, AR Bank# 49): > 64 mg/L
MIC (Klebsiella pneumoniae, KUB No. 5563, AR Bank # 66): > 64 mg/L
MIC (Klebsiella pneumoniae, KUB No. 5565, AR Bank # 68): > 64 mg/L
MIC (Klebsiella pneumoniae, KUB No. 5572, AR Bank # 75): > 64 mg/L
MIC (Klebsiella pneumoniae, KUB No. 5573, AR Bank # 76): 0.5 mg/L (≈ 1.51 µM)
MIC (Klebsiella pneumoniae, KUB No. 5576, AR Bank # 79): > 64 mg/L
MIC (Klebsiella pneumoniae, KUB No. 5584, AR Bank # 87): > 64 mg/L
MIC (Klebsiella pneumoniae, KUB No. 5594, AR Bank # 97): > 64 mg/L
MIC (Klebsiella pneumoniae, KUB No. 5595, AR Bank # 98): > 64 mg/L
MIC (Klebsiella pneumoniae, KUB No. 5603, AR Bank # 106): > 64 mg/L
MIC (Klebsiella pneumoniae, KUB No. 5604, AR Bank # 107): > 64 mg/L
MIC (Klebsiella pneumoniae, KUB No. 5606, AR Bank # 109): > 64 mg/L
MIC (Klebsiella pneumoniae, KUB No. 5614, AR Bank # 117): 8 mg/L (≈ 24.1 µM)
MIC (Klebsiella pneumoniae, KUB No. 5617, AR Bank # 120): > 64 mg/L
MIC (Klebsiella pneumoniae, KUB No. 5622, AR Bank # 125): > 64 mg/L
MIC (Klebsiella pneumoniae, KUB No. 5626, AR Bank # 129): > 64 mg/L
MIC (Klebsiella pneumoniae, KUB No. 5635, AR Bank # 138): > 64 mg/L
MIC (Klebsiella pneumoniae, KUB No. 5637, AR Bank # 140): > 64 mg/L
MIC (Klebsiella pneumoniae, KUB No. 5638, AR Bank # 141): > 64 mg/L
MIC (Klebsiella pneumoniae, KUB No. 5643, AR Bank # 146): > 64 mg/L
MIC (Klebsiella pneumoniae, KUB No. 5645, AR Bank # 148): > 64 mg/L
MIC (Klebsiella pneumoniae, KUB No. 5650, AR Bank # 153): > 64 mg/L
MIC (Klebsiella pneumoniae, KUB No. 5657, AR Bank # 160): 0.06 mg/L (≈ 0.181 µM)
MIC (Klebsiella pneumoniae, KUB No. 5757, AR Bank # 361): > 64 mg/L
